{"source": "patent US20150018396A1", "about": "“PREVENTION AND TREATMENT OF RESPIRATORY INFECTION WITH PEROXISOME PROLIFERATOR ACTIVATOR RECEPTOR DELTA AGONIST” (PRESIDENT AND FELLOWS OF HARVARD COLLEGE, priority 2012, published 2015)", "key": {"Ppar-δ": {"system": "Ppar-δ", "assay": "Gene expression analyses of Balf cells by real-time PCR", "assay_type": "in vivo, mouse", "details": "mice gavaged for three days", "experimental": "(§1) Mice were infected with 5×10^5 CFU of S. pneumoniae. […] Twenty-four hours post-infection, lavage fluid was isolated and analyzed for bacterial counts. […] Mice were gavaged with GW501516 for three days. […] Alveolar macrophages were isolated and ROS was determined using FcOxyburst. Data are presented as mean±SEM. *p<0.05.\nFor gene expression analyses, we determined relative expression levels using SYBR Green-based real-time qPCR reactions. We used 36B4 expression levels for normalization. For in vitro analyses of infected macrophages, S. pneumoniae conjugated to magnetic beads were used during infection (see Bacterial Growth and Manipulation for details). Cells were infected for 1 hr with conjugated beads. At the end of the experiment, a magnet was used to separate cells that contained intracellular magnetic bacteria. These cells were used for expression analyses."}, "S. pneumoniae": {"system": "S. pneumoniae", "assay": "Survival in a mouse model of pneumonia (intranasal S. pneumoniae infection)", "assay_type": "in vivo", "details": "wt C57BL/6 mice, 2 mg kg^−1 per day by gavage, 5×10^5 CFU S. pneumoniae", "experimental": "as §1\nWe next sought to explore the therapeutic potential of the Ppar-δ controlled phagosomal function in pathologies associated with infection. For this purpose, wt mice were infected with a higher dose of S. pneumoniae through nasal inhalation, which led to lethality in 75% of mice within 5 days post-injection (FIG. 5a). […] Taken together, our data implicate the potential use of synthetic Ppar-δ agonists to improve the outcomes of bacteria infection, such as pneumonia.\nPpar-δ floxed animals were generated as described previously^33,34. Ppar-δ mice were crossed to lysozyme cre mice (Jackson laboratory) to generate Ppar-δ^mye−/− mice. Ppar-δ^fl/fl mice were used as wt controls. All mice were maintained on a C57BL/6 background. Mice used for survival studies in FIG. 5 were C57BL/6 mice purchased from Jackson Laboratory. Bone marrow from CSS-17 mice was provided by Dr. Colleen Croniger (Case Western Reserve University). For in vivo killing assays, mice were anesthetized with a ketamine/xylazine solution and infected intranasally with 10^6 CFU S. pneumoniae. […]"}, "alveolar macrophages": {"system": "alveolar macrophages", "assay": "Fc-stimulated phagosomal ROS production ex vivo in isolated alveolar macrophages (FcOxyburst)", "parameters": "species or system mouse", "details": "wt and Ppar-δ mye−/− mice gavaged for 3 days", "experimental": "as §1\nWe next sought to explore the therapeutic potential of the Ppar-δ controlled phagosomal function in pathologies associated with infection. For this purpose, wt mice were infected with a higher dose of S. pneumoniae through nasal inhalation, which led to lethality in 75% of mice within 5 days post-injection (FIG. 5a). […]\nBacterial killing assays were used for in vitro bacterial killing^37,38. […] Colony forming units (CFU) were determined as a measure of bacterial survival. ROS assays were done using FcOxyburst (Invitrogen) according to manufacturers protocols and analyzed by fluorescence activated cell sorting (FACS). Phagocytosis and phagosome number were determined by FACS using Alexa Fluor 647 labeled heat killed S. pneumoniae^32. pH was determined as previously described^32. […] Macrophages were incubated with labeled bacteria and analyzed by FACS for FITC relative to Alexa Fluor 647 signal. ATP and lactate were measured using commercially available kits. […]"}, "Noxo1 promoter [1]": {"system": "Noxo1 promoter", "assay": "Noxo1 promoter luciferase reporter in stably transformed wt and Ppar-δ−/− macrophage cell lines", "assay_type": "cell-based, mouse", "details": "Ppar-δ−/− macrophage cell lines vs wt", "experimental": "(§2) FIGS. 3a-3c show the transcriptional regulation of macrophage phagosomal function by Ppar-δ. FIGS. 3a and 3b show the expression of genes involved in NADPH oxidase complexes in cultured macrophages and alveolar macrophages, respectively. Gene expression was determined by real-time PCR. […] RAW264.7 macrophages were transfected with a luciferase reporter driven by the 2 kb 5′-regulatory region of the Noxo1 or Nox2 gene. […] Transfection was done in stably transformed wt and Ppar-δ^−/− macrophage cell lines. Data are presented as mean±SEM. *p<0.05.\n(§3) To elucidate downstream targets of Ppar-δ mediating phagosomal ROS production, expression of genes involved in this process was analyzed in stably transformed wt and Ppar-δ^−/− macrophages and in alveolar lavage cells from wt and Ppar-δ^mye−/− mice after S. pneumoniae infection. […] To determine whether members of the NADPH complex are transcriptional targets of Ppar-δ, we generated luciferase reporter constructs driven by 2 kb upstream promoters of Noxo1 and Nox2. […] Indeed, we found the expression of Ppar-δ and its known target Slc25a20 increased after bacteria infection (FIG. 7a).\nBone marrow-derived macrophages were differentiated in L929 conditioned media as previously described^14. Stables lines were created from bone marrow of Ppar-δ^mye−/− and control mouse lines using a CreJ2 viral system^35,36. […]"}, "Noxo1 promoter [2]": {"system": "Noxo1 promoter", "assay": "Noxo1 promoter luciferase reporter in RAW macrophages", "assay_type": "cell-based", "details": "RAW267.4 macrophages, luciferase reporter driven by 2 kb 5′-regulatory region, treated 12 hours", "experimental": "as §2, §3"}}, "note": "Entries after “also recorded” stand apart in the source; their conditions may differ."}
{"smiles": "Cc1cc(SCc2sc(-c3ccc(C(F)(F)F)cc3)nc2C)ccc1OCC(=O)O", "note": "[GW501516]", "values": [{"measurement": "expression of Ppar-δ in Balf cells", "setting": "Ppar-δ", "result": "increase"}, {"measurement": "expression of Ppar-δ target gene Slc25a20 in Balf cells", "setting": "Ppar-δ", "result": "increase"}, {"measurement": "level of Noxa1 mRNA in Balf cells", "setting": "Ppar-δ", "result": "increased"}, {"measurement": "level of Noxo1 mRNA in Balf cells", "setting": "Ppar-δ", "result": "increased"}, {"measurement": "onset of death", "setting": "S. pneumoniae", "result": "delayed onset of death"}, {"measurement": "survival compared to vehicle-treated mice", "setting": "S. pneumoniae; 3 days prior to and every other day after infection", "result": "significant improvement in survival"}, {"measurement": "phagosome ROS production in alveolar macrophages", "setting": "alveolar macrophages", "result": "increased ROS production in a Ppar-δ dependent manner; also recorded: increases phagosome ROS production"}, {"measurement": "ability to induce Noxo1 promoter activity in cells lacking Ppar-δ", "setting": "Noxo1 promoter [1]", "result": "lost"}, {"measurement": "promoter activity of Noxo1", "setting": "Noxo1 promoter [2]", "result": "increased; also recorded: able to increase activity of the promoter of Noxo1"}]}
